Data as given in patent US20190359609A1, “BICYCLIC OGA INHIBITOR COMPOUNDS” (Janssen Pharmaceutica NV, priority 2016, published 2019).
Read-outs that look alike come from different tables or passages of the source.

Target: T1, recombinant human Meningioma Expressed Antigen 5 (MGEA5), also referred to as O-GlcNAcase (OGA) (Homo sapiens, UniProt O60502)
T1 construct: Full length OGA enzyme was purchased at OriGene (cat # TP322411); purchased OriGene TP322411
T1 sequence (O60502 1-916): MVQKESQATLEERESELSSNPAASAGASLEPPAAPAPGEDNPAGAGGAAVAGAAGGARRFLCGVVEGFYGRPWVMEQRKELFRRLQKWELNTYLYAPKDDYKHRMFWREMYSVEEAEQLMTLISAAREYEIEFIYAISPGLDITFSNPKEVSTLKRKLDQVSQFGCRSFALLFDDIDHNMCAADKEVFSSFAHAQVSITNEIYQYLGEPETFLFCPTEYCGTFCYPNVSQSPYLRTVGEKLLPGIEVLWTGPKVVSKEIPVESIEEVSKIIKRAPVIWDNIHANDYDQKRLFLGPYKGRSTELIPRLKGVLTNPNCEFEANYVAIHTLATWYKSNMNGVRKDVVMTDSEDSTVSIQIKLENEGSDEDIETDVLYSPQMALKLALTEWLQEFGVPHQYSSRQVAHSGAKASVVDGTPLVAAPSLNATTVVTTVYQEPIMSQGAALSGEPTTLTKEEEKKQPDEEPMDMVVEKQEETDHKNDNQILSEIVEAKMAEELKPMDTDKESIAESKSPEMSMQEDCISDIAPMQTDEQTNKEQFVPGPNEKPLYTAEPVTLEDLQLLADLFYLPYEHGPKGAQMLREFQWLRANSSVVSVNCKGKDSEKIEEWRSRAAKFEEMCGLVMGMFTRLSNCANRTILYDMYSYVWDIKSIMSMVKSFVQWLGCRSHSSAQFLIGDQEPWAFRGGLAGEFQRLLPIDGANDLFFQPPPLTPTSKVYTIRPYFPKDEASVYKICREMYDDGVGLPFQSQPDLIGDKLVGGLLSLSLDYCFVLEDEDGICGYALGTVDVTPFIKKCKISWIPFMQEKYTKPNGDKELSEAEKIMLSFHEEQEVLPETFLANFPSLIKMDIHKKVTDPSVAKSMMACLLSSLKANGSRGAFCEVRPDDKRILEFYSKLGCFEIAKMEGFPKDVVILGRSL
Assay: OGA biochemical assay: inhibition of FM-GlcNAc hydrolysis, fluorescence (protocol A 10 nM OGA, 1 h; protocol B 2 nM OGA, 6 h)
From the text: The assay is based on the inhibition of the hydrolysis of fluorescein mono-B-D-N-Acetyl-Glucosamine (FM-GlcNAc) (Mariappa et al. 2015, Biochem J 470:255) by the recombinant human Meningioma Expressed Antigen 5 (MGEA5), also referred to as 0-GlcNAcase (OGA). The hydrolysis FM-GlcNAc (Marker Gene technologies, cat # M1485) results in the formation of β-D-N-glucosamineacetate and fluorescein. The fluorescence of the latter can be measured at excitation wavelength 485 nm and emission wavelength 538 nm. An increase in enzyme activity results in an increase in fluorescence signal. Full length OGA enzyme was purchased at OriGene (cat # TP322411). The enzyme was stored in 25 mM Tris.HCl, pH 7.3, 100 mM glycine, 10% glycerol at −20° C. Thiamet G and GlcNAcStatin were tested as reference compounds (Yuzwa et al. 2008 Nature Chemical Biology 4:483; Yuzwa et al. 2012 Nature Chemical Biology 8:393). The assay was performed in 200 mM Citrate/phosphate buffer supplemented with 0.005% Tween-20. 35.6 g Na2HPO4 2 H2O (Sigma, # C0759) were dissolved in 1 L water to obtain a 200 mM solution. 19.2 g citric acid (Merck, #1.06580) was dissolved in 1 L water to obtain a 100 mM solution. pH of the sodiumphosphate solution was adjusted with the citric acid solution to 7.2. The buffer to stop the reaction consists of a 500 mM Carbonate buffer, pH 11.0. 734 mg FM-GlcNAc were dissolved in 5.48 mL DMSO to obtain a 250 mM solution and was stored at −20° C. OGA was used at a 10 nM (protocol A) or 2 nM (protocol B) concentration and FM-GlcNAc at a 100 uM final concentration. Dilutions were prepared in assay buffer.
50 nl of a compound dissolved in DMSO was dispensed on Black Proxiplate™ 384 Plus Assay plates (Perkin Elmer, #6008269) and 3 μl fl-OGA enzyme mix added subsequently. Plates were pre-incubated for 60 min at room temperature and then 2 μl FM-GlcNAc substrate mix added. […] Plates were briefly centrifuged for 1 min at 1000 rpm and incubate at room temperature for 1 h (10 nM OGA, protocol A) or 6 h (2 nM OGA, protocol B). To stop the reaction 5 μl STOP buffer were added and plates centrifuge again 1 min at 1000 rpm. Fluorescence was quantified in the Thermo Scientific Fluoroskan Ascent or the PerkinElmer EnVision with excitation wavelength 485 nm and emission wavelength 538 nm.
For analysis a best-fit curve is fitted by a minimum sum of squares method. From this an IC50 value and Hill coefficient was obtained. High control (no inhibitor) and low control (saturating concentrations of standard inhibitor) were used to define the minimum and maximum values.

[1] = Enzymatic protocol B (2 nM OGA, 6 h)
[2] = Enzymatic protocol B (2 nM OGA, 6 h), read-out: Enzymatic hOGA, pIC50 (converted)
[3] = comparative table, protocol not given, read-out: Emax (OGA inhibitory activity, comparison with 1,4-disubstituted piperidine comparator)
[4] = comparative table, protocol not given, read-out: pIC50 (OGA inhibitory activity, comparison with 1,4-disubstituted piperidine comparator) (converted)
[5] = Enzymatic protocol A (10 nM OGA, 1 h), read-out: Enzymatic hOGA, pIC50 (converted)
[6] = Enzymatic protocol A (10 nM OGA, 1 h), read-out: Enzymatic Emax (%)
[7] = Enzymatic protocol B (2 nM OGA, 6 h), read-out: Enzymatic Emax (%)

Row | Structure (SMILES) | Enzymatic Emax (%) [1] | IC50 [2] | Emax [7] | further results
1 | CC(c1ccc2c(c1)OCO2)N1CCCC(c2cc3ncccc3[nH]2)C1 (single isomer, unassigned) [Compound 32] | 89.4% | 1.78 µM | – | –
2 | CC(=O)Nc1ncc(CN2CCC(c3cc4ncccc4[nH]3)CC2)s1 [comparator, reference compound] | – | – | – | Emax [3]: 103%; IC50 [4]: 0.224 µM
3 | CC(=O)Nc1ncc(S(=O)(=O)N2CCCC(c3cc4ncccc4[nH]3)C2)s1 (single isomer, unassigned) [Compound 3] | – | – | – | Enzymatic Emax (%) (Enzymatic protocol A (10 nM OGA, 1 h)): 99%; IC50 [5]: 0.562 µM
4 | CC(c1ccc2c(c1)OCO2)N1CCCC(c2cc3ncccc3n2C)C1 (single isomer, unassigned) [Compound 46] | 24.2% | > 10 µM | – | –
5 | CC(=O)Nc1ncc(CN2CCCC(c3cc4ncccc4[nH]3)C2)s1 (centres unmarked) [Compound 5] | – | – | – | Emax [6]: 99.7%; IC50 [5]: 0.0257 µM; Emax [3]: 99.7%; IC50 [4]: 0.0257 µM; OGA inhibitory activity compared with comparator (greater than the corresponding 1,4-disubstituted piperidine compound (comparator)): ~1 order of magnitude
6 | Cn1c(C2CCCN(Cc3nc4ccccc4n3C)C2)cc2ncccc21 (centres unmarked) [Compound 56] | – | 0.832 µM | 98% | –
7 | CC(=O)Nc1ncc(CN2CCCC(Cn3ccc4ncccc43)C2)s1 (centres unmarked) [Compound 64] | – | 0.00776 µM | 100% | –
8 | Cn1c(C2CCCN(Cc3ccc4nccnc4c3)C2)cc2ncccc21 (single isomer, unassigned) [Compound 43] | 46.5% | > 10 µM | – | –
9 | Cn1c(C2CCCN(Cc3cc4c(cn3)OCCO4)C2)cc2ncccc21 (centres unmarked) [Compound 50] | – | 8.71 µM | 52.3% | –
10 | CC(c1ccc2c(c1)OCO2)N1CCCC(c2cc3ncccc3[nH]2)C1 (single isomer, unassigned) [Compound 30] | 75.1% | 4.07 µM | – | –
11 | CC(c1ccc2c(c1)OCO2)N1CCCC(c2cc3ncccc3n2C)C1 (single isomer, unassigned) [Compound 48] | 31.7% | > 10 µM | – | –
12 | CC(=O)N(C)c1ncc(CN2CCCC(c3cc4ncccc4[nH]3)C2)s1 (centres unmarked) [Compound 10] | – | 1.02 µM | 90.1% | –
13 | Cn1c(C2CCCN(Cc3cnc4c(c3)OCCO4)C2)cc2ncccc21 (centres unmarked) [Compound 55] | – | 2.19 µM | 81.5% | –
14 | Cn1c(CN2CCCC(c3cc4ncccc4n3C)C2)cc2ccccc21 (centres unmarked) [Compound 54] | – | 4.07 µM | 69.1% | –
15 | Cn1c(C2CCCN(Cc3ccc4nccnc4c3)C2)cc2ncccc21 (single isomer, unassigned) [Compound 42] | 93.2% | 0.776 µM | – | –
16 | CC(c1ccc2c(c1)OCO2)N1CCCC(c2cc3ncccc3n2C)C1 (racemic) [Compound 44] | – | 0.0832 µM | 99% | –
17 | Cn1c(C2CCCN(Cc3ccc4nccnc4c3)C2)cc2ncccc21 (centres unmarked) [Compound 41] | – | 1.26 µM | 89.8% | –

Row | Structure (SMILES) | Enzymatic Emax (%) [1] | IC50 [2] | Emax [7] | further results
18 | Cn1c(C2CCCN(Cc3ccc4cccnc4c3)C2)cc2ncccc21 (centres unmarked) [Compound 63] | – | > 10 µM | 23.9% | –
19 | CC(c1ccc2c(c1)OCO2)N1CCCC(c2cc3ncccc3[nH]2)C1 (single isomer, unassigned) [Compound 29] | 73.5% | 3.72 µM | – | –
20 | CC(=O)Nc1ncc(S(=O)(=O)N2CCCC(c3nc4ncccc4[nH]3)C2)s1 (centres unmarked) [Compound 1] | – | – | – | Emax [6]: 75.9%; IC50 [5]: 1.86 µM
21 | Cn1c(C2CCCN(Cc3ccc4scnc4c3)C2)cc2ncccc21 (centres unmarked) [Compound 53] | – | 0.832 µM | 97.2% | –
22 | c1cnc2cc(C3CCCN(Cc4ccc5c(c4)OCO5)C3)[nH]c2c1 (centres unmarked) [Compound 38] | – | – | – | Emax [6]: 99.9%; IC50 [5]: 1.74 µM
23 | CC(c1ccc2c(c1)OCCO2)N1CCCC(c2cc3ncccc3[nH]2)C1 (single isomer, unassigned) [Compound 34] | – | 0.708 µM | 93.8% | –
24 | Cn1c(C2CCCN(Cc3ccc4nsnc4c3)C2)cc2ncccc21 (centres unmarked) [Compound 52] | – | 3.98 µM | 72.2% | –
25 | CC(=O)Nc1ncc(CN2CCCC(c3cc4cnccc4[nH]3)C2)s1 (single isomer, unassigned) [Compound 14] | 96.3% | 0.676 µM | – | –
26 | CC(c1ccc2c(c1)OCO2)N1CCCC(c2cc3ncccc3n2C)C1 (single isomer, unassigned) [Compound 47] | 85.8% | 1.55 µM | – | –
27 | CC(=O)Nc1ncc(CN2CCOC(c3cc4ncccc4[nH]3)C2)s1 (centres unmarked) [Compound 27] | – | 3.16 µM | 77.3% | –
28 | CC(c1ccc2c(c1)OCCO2)N1CCCC(c2cc3ncccc3[nH]2)C1 (single isomer, unassigned) [Compound 37] | 96.0% | 0.955 µM | – | –
29 | CC(=O)Nc1ncc(CN2CCNC(c3cc4ncccc4[nH]3)C2)s1 (centres unmarked) [Compound 57] | – | 6.61 µM | 60.8% | –
30 | CC(c1ccc2c(c1)OCCO2)N1CCCC(c2cc3ncccc3[nH]2)C1 (single isomer, unassigned) [Compound 35] | 87.7% | 2.45 µM | – | –
31 | Cn1c(C2CCCN(Cc3ccc4ccccc4n3)C2)cc2ncccc21 (centres unmarked) [Compound 51] | – | 7.76 µM | 56.7% | –
32 | CC(c1ccc2c(c1)OCCO2)N1CCCC(c2cc3ncccc3[nH]2)C1 (single isomer, unassigned) [Compound 36] | 101.3% | 0.011 µM | – | –
33 | CC(c1ccc2c(c1)OCO2)N1CCCC(c2cc3ncccc3n2C)C1 (single isomer, unassigned) [Compound 45] | 100% | 0.0275 µM | – | –
34 | CC(=O)Nc1ncc(CN2CCCC(c3cc4cnccc4[nH]3)C2)s1 (single isomer, unassigned) [Compound 13] | – | 0.0229 µM | 98.9% | –
